Data taken from ChEMBL document CHEMBL1201862, “PubChem BioAssay data set” (2004).
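Protocol summary: plate cells (96-well), add compound at 5 concentrations, incubate 48 h, interpolate endpoints linearly. The concentration for 50% growth inhibition is given as GI50.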 Activity calls are given as the source filed them. Rule as the data show it: active = GI50 up to about 1.1 µM and inactive = higher.

What was measured:
Test in all cases: growth of human tumour cells (NCI), 48 h
[1] = test system: HCT-15
[2] = test system: HCT-116
[3] = test system: SK-MEL-28
[4] = test system: SK-MEL-2
[5] = test system: COLO 205
[6] = test system: NCI-H460
[7] = test system: NCI-H522
[8] = test system: CCRF-CEM
[9] = test system: SF-268
[10] = test system: SK-OV-3
[11] = test system: NCI-H23
[12] = test system: SR
[13] = test system: OVCAR-5
[14] = test system: Hs-578T
[15] = test system: A498
[16] = test system: BT-549
[17] = test system: TK-10
[18] = test system: MDA-N
[19] = test system: PC-3
[20] = test system: MDA-MB-435
[21] = test system: MOLT-4
[22] = test system: SNB-75
[23] = test system: SK-MEL-5
[24] = test system: UACC-62
[25] = test system: A549
[26] = test system: IGROV-1
[27] = test system: OVCAR-8
[28] = test system: M14
[29] = test system: HCC 2998
[30] = test system: KM12
[31] = test system: RPMI-8226
[32] = test system: T47D
[33] = test system: SW-620
[34] = test system: ACHN
[35] = test system: OVCAR-3
[36] = test system: OVCAR-4
[37] = test system: SN12C
[38] = test system: HOP-92
[39] = test system: NCI/ADR-RES
[40] = test system: SF-295
[41] = test system: UO-31
[42] = test system: DU-145
[43] = test system: HT-29
[44] = test system: MCF7
[45] = test system: HOP-62
[46] = test system: U-251
[47] = test system: MDA-MB-231
[48] = test system: UACC-257
[49] = test system: RXF 393
[50] = test system: NCI-H226
[51] = test system: SF-539
[52] = test system: Malme-3M
[53] = test system: K562
[54] = test system: CAKI-1
[55] = test system: 786-0
[56] = test system: EKVX
[57] = test system: LOX IMVI
[58] = test system: SNB-19
[59] = test system: HL-60

CC(=O)N1N=C(c2ccc3ccccc3c2O)CC1c1cccs1 (configuration not stated)
GI50 [1]: 14 µM
GI50 [2]: 9.89 µM (inactive)
GI50 [3]: 37.2 µM (inactive)
GI50 [4]: 19 µM (inactive)
GI50 [5]: 20.2 µM (inactive)
GI50 [6]: 8.49 µM (inactive)
GI50 [7]: 14.9 µM (inactive)
GI50 [8]: 4.04 µM (inactive)
GI50 [9]: 12.3 µM (inactive)
GI50 [10]: 44.3 µM (inactive)
GI50 [11]: 20.3 µM (inactive)
GI50 [12]: 3.6 µM (inactive)
GI50 [13]: 32.4 µM (inactive)
GI50 [14]: 28.6 µM (inactive)
GI50 [15]: 12.7 µM (inactive)
GI50 [16]: 19.5 µM (inactive)
GI50 [17]: 25 µM (inactive)
GI50 [18]: 20.2 µM (inactive)
GI50 [19]: 11.1 µM (inactive)
GI50 [20]: 18 µM (inactive)
GI50 [21]: 4.26 µM (inactive)
GI50 [22]: 25.5 µM (inactive)
GI50 [23]: 18.3 µM (inactive)
GI50 [24]: 9.31 µM (inactive)
GI50 [25]: 13.9 µM (inactive)
GI50 [26]: 11.4 µM (inactive)
GI50 [27]: 16.9 µM (inactive)
GI50 [28]: 14.4 µM (inactive)
GI50 [29]: 21.6 µM (inactive)
GI50 [30]: 14.4 µM (inactive)
GI50 [31]: 6.55 µM (inactive)
GI50 [32]: 11.6 µM (inactive)
GI50 [33]: 16 µM (inactive)
GI50 [34]: 15.6 µM (inactive)
GI50 [35]: 7.96 µM (inactive)
GI50 [36]: 27.8 µM (inactive)
GI50 [37]: 12.1 µM (inactive)
GI50 [38]: 33.7 µM (inactive)
GI50 [39]: 13.6 µM (inactive)
GI50 [40]: 21.7 µM (inactive)
GI50 [41]: 9.95 µM (inactive)
GI50 [42]: 34 µM (inactive)
GI50 [43]: 21.9 µM (inactive)
GI50 [44]: 10.9 µM (inactive)
GI50 [45]: 16.3 µM (inactive)
GI50 [46]: 8.09 µM (inactive)
GI50 [47]: 20.6 µM (inactive)
GI50 [48]: 34.8 µM (inactive)
GI50 [49]: 15.7 µM (inactive)
GI50 [50]: 40.1 µM (inactive)
GI50 [51]: 22.2 µM (inactive)
GI50 [52]: 10.4 µM (inactive)
GI50 [53]: 4.18 µM (inactive)
GI50 [54]: 20.1 µM (inactive)

O=C(CCCc1cccc2[nH]c3c(c12)CN(Cc1ccccc1)CC3)c1ccc(F)cc1
GI50 [1]: 40.3 µM
GI50 [2]: 18.7 µM (inactive)
GI50 [3]: > 100 µM (inactive)
GI50 [4]: > 100 µM (inactive)
GI50 [5]: 14.4 µM (inactive)
GI50 [6]: 31.5 µM (inactive)
GI50 [7]: 32.4 µM (inactive)
GI50 [8]: 30.4 µM (inactive)
GI50 [9]: > 100 µM (inactive)
GI50 [10]: > 47.1 µM (inactive)
GI50 [11]: 16.3 µM (inactive)
GI50 [12]: 13 µM (inactive)
GI50 [13]: > 48.1 µM (inactive)
GI50 [14]: 99.5 µM (inactive)
GI50 [15]: > 100 µM (inactive)
GI50 [16]: > 100 µM (inactive)
GI50 [55]: > 52.5 µM (inactive)
GI50 [17]: > 100 µM (inactive)
GI50 [18]: 97.5 µM (inactive)
GI50 [56]: > 100 µM (inactive)
GI50 [19]: > 43.6 µM (inactive)
GI50 [20]: 40.6 µM (inactive)
GI50 [21]: 15.3 µM (inactive)
GI50 [22]: > 62.7 µM (inactive)
GI50 [23]: 18.2 µM (inactive)
GI50 [24]: 49.1 µM (inactive)
GI50 [25]: > 95.9 µM (inactive)
GI50 [26]: > 100 µM (inactive)
GI50 [27]: > 100 µM (inactive)
GI50 [28]: 42 µM (inactive)
GI50 [57]: 7.85 µM (inactive)
GI50 [29]: 11.9 µM (inactive)
GI50 [30]: 39.1 µM (inactive)
GI50 [31]: 12.8 µM (inactive)
GI50 [32]: 15.6 µM (inactive)
GI50 [33]: 83.2 µM (inactive)
GI50 [34]: > 100 µM (inactive)
GI50 [35]: > 100 µM (inactive)
GI50 [36]: > 67 µM (inactive)
GI50 [37]: > 100 µM (inactive)
GI50 [38]: > 100 µM (inactive)
GI50 [39]: > 100 µM (inactive)
GI50 [40]: > 100 µM (inactive)
GI50 [41]: > 33.3 µM (inactive)
GI50 [42]: > 100 µM (inactive)
GI50 [43]: 4.39 µM (inactive)
GI50 [44]: > 100 µM (inactive)
GI50 [58]: > 100 µM (inactive)
GI50 [45]: > 37.4 µM (inactive)
GI50 [46]: 49.4 µM (inactive)
GI50 [47]: > 40.7 µM (inactive)
GI50 [48]: 2.61 µM (inactive)
GI50 [49]: > 29.9 µM (inactive)
GI50 [50]: > 95.3 µM (inactive)
GI50 [51]: > 47.8 µM (inactive)
GI50 [52]: 40.9 µM (inactive)
GI50 [53]: 7.01 µM (inactive)
GI50 [54]: > 100 µM (inactive)

CC12O[C@]3([C@H](C(=O)N4CCOC43C)[C@H]1Cl)[C@H]1O[C@H]12 (some centres not stated)
GI50 [1]: > 100 µM
GI50 [2]: > 100 µM (inactive)
GI50 [3]: > 100 µM (inactive)
GI50 [4]: > 100 µM (inactive)
GI50 [5]: 24.6 µM (inactive)
GI50 [6]: > 100 µM (inactive)
GI50 [7]: > 100 µM (inactive)
GI50 [9]: > 100 µM (inactive)
GI50 [10]: > 100 µM (inactive)
GI50 [12]: 51.4 µM (inactive)
GI50 [13]: > 100 µM (inactive)
GI50 [14]: > 100 µM (inactive)
GI50 [15]: > 100 µM (inactive)
GI50 [16]: > 100 µM (inactive)
GI50 [55]: > 100 µM (inactive)
GI50 [17]: > 100 µM (inactive)
GI50 [18]: > 100 µM (inactive)
GI50 [56]: > 100 µM (inactive)
GI50 [19]: > 100 µM (inactive)
GI50 [20]: > 100 µM (inactive)
GI50 [21]: > 100 µM (inactive)
GI50 [22]: > 100 µM (inactive)
GI50 [23]: > 100 µM (inactive)
GI50 [24]: > 100 µM (inactive)
GI50 [25]: > 100 µM (inactive)
GI50 [26]: > 100 µM (inactive)
GI50 [27]: > 100 µM (inactive)
GI50 [28]: > 100 µM (inactive)
GI50 [57]: > 100 µM (inactive)
GI50 [29]: > 100 µM (inactive)
GI50 [59]: > 100 µM (inactive)
GI50 [30]: > 100 µM (inactive)
GI50 [31]: 94.8 µM (inactive)
GI50 [32]: > 100 µM (inactive)
GI50 [33]: > 100 µM (inactive)
GI50 [34]: > 100 µM (inactive)
GI50 [35]: > 100 µM (inactive)
GI50 [36]: > 100 µM (inactive)
GI50 [37]: > 100 µM (inactive)
GI50 [38]: > 100 µM (inactive)
GI50 [39]: > 100 µM (inactive)
GI50 [40]: > 100 µM (inactive)
GI50 [41]: > 100 µM (inactive)
GI50 [42]: > 100 µM (inactive)
GI50 [43]: > 100 µM (inactive)
GI50 [44]: > 100 µM (inactive)
GI50 [58]: > 100 µM (inactive)
GI50 [45]: > 100 µM (inactive)
GI50 [46]: > 100 µM (inactive)
GI50 [47]: > 100 µM (inactive)
GI50 [48]: > 100 µM (inactive)
GI50 [50]: > 100 µM (inactive)
GI50 [51]: > 100 µM (inactive)
GI50 [53]: 98.6 µM (inactive)
GI50 [54]: > 100 µM (inactive)
